The values that follow come from paper PMC7023430, “4-Aminobenzoic Acid Derivatives: Converting Folate Precursor to Antimicrobial and Cytotoxic Agents” (Biomolecules, 2019).

In data set [1] the test system is methicillin-resistant Staphylococcus aureus ATCC 43300, CCM 4750 (MRSA). The experiment in a line: Antibacterial microdilution broth method, MRSA. It counts as cell-based. (Dilution methods test growth across graded concentrations, often in twofold steps.)
Data set [2] concerns Staphylococcus epidermidis H 6966/08. The experiment in a line: Antibacterial microdilution broth method, S. epidermidis. The format is cell-based. As to conditions: S. epidermidis.
In data set [3] the test system is Enterococcus faecalis ATCC 29212, CCM 4224. Description: Antibacterial microdilution broth method, E. faecalis. It counts as cell-based.
Data set [4] has as its system Escherichia coli ATCC 25922, CCM 3954. The experiment in a line: Antibacterial microdilution broth method, E. coli. It counts as cell-based.
The subject of data set [5] is Pseudomonas aeruginosa ATCC 27853, CCM 3955. Description: Antibacterial microdilution broth method, P. aeruginosa. It counts as cell-based. As to conditions: P. aeruginosa.
Data set [6] deals with ESBL-positive Klebsiella pneumoniae J 14368/08. As to conditions: ESBL-positive K. pneumoniae.
Data set [7] has as its system Klebsiella pneumoniae D 11750/08. The experiment in a line: Antibacterial microdilution broth method, K. pneumoniae. As to conditions: K. pneumoniae D 11750/08.
A further data set deals with HepG2 cells. Description: Cytotoxicity, CellTiter 96 assay. The format is cell-based, human. As to conditions: 24 h incubation. The method, then: HepG2, human hepatocellular carcinoma cells (ATCC HB-8065; passage 5–8) purchased from Health Protection Agency Culture Collections (ECACC, Salisbury, UK) were cultured in Minimum Essentials Eagle Medium supplemented with 10% fetal bovine serum, 1% L-glutamine solution and non-essential amino acid solution (Sigma-Aldrich, St. Louis, MO, USA) in a humidified atmosphere containing 5% CO2 at 37 °C. For subculturing, the cells were harvested after trypsin/EDTA (Sigma-Aldrich, St. Louis, USA) treatment at 37 °C. To evaluate cytotoxicity, the cells treated with the tested substances were used as experimental groups whereas untreated HepG2 cells served as control groups.
The cells were seeded in a density of 10 000 cells per well in a 96-well plate. The following day the cells were treated with each of the tested substances dissolved in DMSO (maximal incubation concentration of DMSO was 1% v/v). The tested substances were prepared at different incubation concentrations in triplicates according to their solubility. Simultaneously, the controls representing 100% cell viability, 0% cell viability (the cells treated with 10% DMSO), no cell control and vehiculum controls were also involved in triplicates. After 24 h incubation in a humidified atmosphere containing 5% CO2 at 37 °C, the reagent from the kit CellTiter 96 AQueous One Solution Cell Proliferation Assay (CellTiter 96; Promega, Fitchburg, WI, USA) was added. After 2 h incubation at 37 °C absorbance of samples was recorded at 490 nm (TECAN, Infinita M200, Grödig, Austria). A standard toxicological parameter IC50 was calculated by nonlinear regression from a semilogarithmic plot of incubation concentration versus percentage of absorbance relative to untreated controls using GraphPad Prism software (version 6; GraphPad Software, Inc., La Jolla, CA, USA).
The CellTiter 96 assay used is based on the reduction of tetrazolium dye in living cells to formazan, which is then determined colorimetrically. This reduction is related to availability of NADH or NADPH. The decline in levels of these metabolically important compounds in the cell causes that the production of formazan is reduced. For quantitative comparison of cytotoxicity, the parameter IC50 was used.

Data set [8] relates to Mycobacterium tuberculosis H37Rv (331/88). Description: Antimycobacterial micromethod in Šula's medium, M. tuberculosis. The format is cell-based.
Data set [9] has as its system Mycobacterium avium 330/88. The experiment in a line: Antimycobacterial micromethod in Šula's medium, M. avium. It counts as cell-based.
Data set [10] deals with Mycobacterium kansasii 235/80. The experiment in a line: Antimycobacterial micromethod in Šula's medium, M. kansasii 235/80. The format is cell-based.
Data set [11] concerns M. kansasii 6509/96 (clinical isolate). The experiment in a line: Antimycobacterial micromethod in Šula's medium, M. kansasii 6509/96. As to conditions: Mycobacterium kansasii. The format is cell-based.
Data set [12] has as its system Candida albicans ATCC 44859. The experiment in a line: Antifungal microdilution broth method, C. albicans. The format is cell-based. The procedure: (§1) The antifungal properties were evaluated against five yeast strains, namely: Candida albicans ATCC 44859, Candida tropicalis 156, Candida krusei […], Candida glabrata 20/I, Trichosporon […] 1188 and three strains of filamentous fungi: Aspergillus fumigatus 231, Lichtheimia corymbifera 272, and Trichophyton interdigitale 445. A microdilution broth method was performed according to EUCAST II, III instructions with slight modifications. Briefly, tested compounds were dissolved in DMSO and diluted in a twofold manner with RPMI-1640 medium with L-glutamine, supplemented with 2% glucose (w/v) and buffered to pH 7.0 with 3 morpholinopropane-1-sulfonic acid (all components were purchased from Sigma-Aldrich, USA). […] Positive controls consisted of test microbe solely, while negative controls consisted of medium and DMSO. Internal quality control was included too. Visual inspection was used for MIC endpoints evaluation. The experiments were conducted in duplicates. For the results to be valid, the difference in MIC determined from two parallel measurements must not be greater than one step on the dilution scale. PABA and triazole antimycotic drug fluconazole were involved as the reference compounds.

For another data set, the system named is Candida tropicalis 156. The experiment in a line: Antifungal microdilution broth method, C. tropicalis. It counts as cell-based. The method, then: as §1
In another data set the test system is Candida krusei E28. Description: Antifungal microdilution broth method, C. krusei. The format is cell-based. As to conditions: Pichia kudriavzevii. The method, then:
as §1

Another data set has as its system Candida glabrata 20/I. Description: Antifungal microdilution broth method, C. glabrata. It counts as cell-based. As to conditions: Nakaseomyces glabratus. The procedure:
as §1

Another data set relates to Trichosporon asahii 1188. Description: Antifungal microdilution broth method, T. asahii. It counts as cell-based. The method, then:
as §1

Data set [13] relates to Aspergillus fumigatus 231. Description: Antifungal microdilution broth method, A. fumigatus. It counts as cell-based. The procedure: as §1
Data set [14] concerns Lichtheimia corymbifera 272. Description: Antifungal microdilution broth method, L. corymbifera. The format is cell-based. The procedure:
as §1

For data set [15], the system named is Trichophyton interdigitale 445. The experiment in a line: Antifungal microdilution broth method, T. interdigitale. The format is cell-based. The procedure:
as §1

The mark [16] stands for this setting: 24 h incubation, read-out: MIC EC 24 h.
Where [17] appears, read: 48 h incubation, read-out: MIC EC 48 h.
[18] abbreviates: 24 h incubation, read-out: MIC PA 24 h.
The mark [19] stands for this setting: 48 h incubation, read-out: MIC PA 48 h.

pIC50: −log10 of the molar value. ≈ marks a conversion by molar mass, not a printed value. Like-named read-outs stand apart in the source and are kept apart here.

With bacitracin [reference compound], the MIC in [1] (24 h incubation, read-out: MIC MRSA 24 h) is given as 15.62 µM; in data set [1] (48 h incubation, read-out: MIC MRSA 48 h) it was 15.62 µM; in data set [2] (24 h incubation, read-out: MIC SE 24 h) it was 15.62 µM; in [2] (48 h incubation, read-out: MIC SE 48 h), 31.25 µM; in data set [3] (24 h incubation, read-out: MIC EF 24 h), 15.62 µM; in data set [3] (48 h incubation, read-out: MIC EF 48 h) it was 62.5 µM. The MIC in data set [4] (setting [16]), in [4] (setting [17]), in data set [5] (setting [18]) and in data set [5] (setting [19]) was above 500 µM in each case. Further, in data set [6] (24 h incubation), the “MIC KP-E 24 h” value is recorded as above 500 µM. Besides, the “MIC KP-E 48 h” value in data set [6] (48 h incubation) was above 500 µM. For the same compound, in data set [7] (24 h incubation), the “MIC KP 24 h” value is above 500 µM. Also, in [7] (48 h incubation), the “MIC KP 48 h” value is reported as above 500 µM.

One may read the pIC50 as −log10 of the IC50, conventionally taken in molar units. The low end stands for a large IC50, the high end for a small IC50. Compound `N.N.[Cl][Pt][Cl]` [Cisplatin, cisplatin, reference compound] had a pIC50 in the data set on HepG2 cells of 4.67.

In the case of `NNC(=O)c1ccncc1` [INH, isoniazid, reference compound], the MIC was 0.5 µM (≈ 0.0686 µg/mL) in data set [8] (336 h, 14 days incubation at 37 °C, read-out: MIC Mtb. 331/88 14 d); 1 µM (≈ 0.137 µg/mL) in data set [8] (504 h, 21 days incubation at 37 °C, read-out: MIC Mtb. 331/88 21 d); above 250 µM in data set [9] (330/88, 336 h, 14 days incubation at 37 °C, read-out: MIC M. avium 330/88 14 d); above 250 µM in data set [9] (330/88, 504 h, 21 days incubation at 37 °C, read-out: MIC M. avium 330/88 21 d); above 250 µM in data set [10] (235/80, 168 h, 7 days incubation at 37 °C, read-out: MIC M. kansasii 235/80 7 d); above 250 µM in data set [10] (235/80, 336 h, 14 days incubation at 37 °C, read-out: MIC M. kansasii 235/80 14 d). Moreover, the MIC in data set [10] (235/80, 504 h, 21 days incubation at 37 °C, read-out: MIC M. kansasii 235/80 21 d) is above 250 µM; in data set [11] (168 h, 7 days incubation at 37 °C, read-out: MIC M. kansasii 6509/96 7 d), 8 µM (≈ 1.1 µg/mL); in data set [11] (336 h, 14 days incubation at 37 °C, read-out: MIC M. kansasii 6509/96 14 d), 8 µM (≈ 1.1 µg/mL); in data set [11] (504 h, 21 days incubation at 37 °C, read-out: MIC M. kansasii 6509/96 21 d), 8 µM (≈ 1.1 µg/mL).

For the compound `NC[C@@H]1O[C@H](O[C@H]2[C@@H](O)[C@H](O[C@@H]3[C@@H](O)[C@H](N)C[C@H](N)[C@H]3O[C@H]3O[C@H](CN)[C@@H](O)[C@H](O)[C@H]3N)O[C@@H]2CO)[C@H](N)[C@@H](O)[C@@H]1O` [NEO, neomycin, reference compound], the MIC in data set [4] (setting [16]) came to 3.9 µM (≈ 2.4 µg/mL); in data set [4] (setting [17]), 3.9 µM (≈ 2.4 µg/mL); in data set [5] (setting [18]), 7.81 µM (≈ 4.8 µg/mL); in data set [5] (setting [19]), 15.62 µM (≈ 9.6 µg/mL).

In general, MIC50 refers to the lowest concentration that inhibits either 50% of growth or 50% of the strains tested, depending on the study. `OC(Cn1cncn1)(Cn1cncn1)c1ccc(F)cc1F` [FLU, fluconazole, reference compound]: the MIC50 in [12] (ATCC44859, 24 h, fluconazole values mean MIC50, read-out: MIC50 CA 24 h) is 0.24 µM (≈ 0.0735 µg/mL); in data set [12] (ATCC44859, 48 h, fluconazole values mean MIC50, read-out: MIC50 CA 48 h), 0.24 µM (≈ 0.0735 µg/mL); in the data set on Candida tropicalis 156 (24 h, fluconazole values mean MIC50, read-out: MIC50 CT 24 h), above 500 µM; with Candida tropicalis 156 (48 h, fluconazole values mean MIC50, read-out: MIC50 CT 48 h), above 500 µM; with Candida krusei E28 (24 h, fluconazole values mean MIC50, read-out: MIC50 CK 24 h), 125 µM (≈ 38.3 µg/mL); with Candida krusei E28 (48 h, fluconazole values mean MIC50, read-out: MIC50 CK 48 h), 250 µM (≈ 76.6 µg/mL). Moreover, the MIC50 in the data set with Candida glabrata 20/I (24 h, fluconazole values mean MIC50, read-out: MIC50 CG 24 h) was 31.2 µM (≈ 9.57 µg/mL); in the data set on Candida glabrata 20/I (48 h, fluconazole values mean MIC50, read-out: MIC50 CG 48 h), 500 µM (≈ 153 µg/mL); in the data set with Trichosporon asahii 1188 (24 h, fluconazole values mean MIC50, read-out: MIC50 TA 24 h), 250 µM (≈ 76.6 µg/mL); in the data set on Trichosporon asahii 1188 (48 h, fluconazole values mean MIC50, read-out: MIC50 TA 48 h) it was 500 µM (≈ 153 µg/mL); in [13] (24 h, fluconazole values mean MIC50, read-out: MIC50 AF 24 h) it was above 500 µM; in [13] (48 h, fluconazole values mean MIC50, read-out: MIC50 AF 48 h), above 500 µM. In addition, the MIC50 in data set [14] (24 h, fluconazole values mean MIC50, read-out: MIC50 LC 24 h) was above 500 µM; in data set [14] (48 h, fluconazole values mean MIC50, read-out: MIC50 LC 48 h), above 500 µM; in [15] (72 h, fluconazole values mean MIC50, read-out: MIC50 TI 72 h) it was 7.81 µM (≈ 2.39 µg/mL); in data set [15] (120 h, fluconazole values mean MIC50, read-out: MIC50 TI 120 h), 125 µM (≈ 38.3 µg/mL).
